Laboratory results from patent publication US6642392B1 (priority 1997, dated 2003).
Read-outs that look alike come from different tables or passages of the source.

Key:
Format in all cases: in vivo
Phytophthora infestans = details: for Test D disease control rating: tomato late blight; for Test D disease control rating (100 = 100% disease control, 0 = no disease control): tomato seedlings sprayed to run-off, inoculated the following day, rating relative to controls, unmarked compounds (standard test rate)
[1] = system: Eiysiphe graminis f. sp. tritici; test: Test A: wheat powdery mildew, preventive spray on wheat seedlings; details: for Test A disease control rating: wheat powdery mildew; for Test A disease control rating (100 = 100% disease control, 0 = no disease control): wheat seedlings sprayed to run-off, inoculated the following day, rating relative to controls, unmarked compounds (standard test rate)
In short: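 Preventive test: seedlings inoculated with powdery mildew spores one day after run-off spraying of a suspension. Ratings after 7 days in a 20° C growth chamber express percent disease control versus controls.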

Puccinia recondita = test: Test B: wheat leaf rust, preventive spray on wheat seedlings; details: for Test B disease control rating: wheat leaf rust; for Test B disease control rating (100 = 100% disease control, 0 = no disease control): wheat seedlings sprayed to run-off, inoculated the following day, rating relative to controls, unmarked compounds (standard test rate)
In short: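 Preventive test: P. recondita spores were applied one day after a run-off spray of compound suspension on wheat seedlings. Plants had 24 h at 20 °C in saturated air plus 6 days in a 20 °C growth chamber. Scoring is % disease control (100 = full) relative to controls.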

Botrytis cinerea = test: Test E: gray mold, preventive spray on cucumber seedlings; details: for Test E disease control rating: gray mold on cucumber; for Test E disease control rating (100 = 100% disease control, 0 = no disease control): cucumber seedlings sprayed to run-off, inoculated the following day, rating relative to controls, unmarked compounds (standard test rate)
In short: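 Preventive spray on cucumber seedlings used a suspension (3% acetone, 250 ppm Trem 014), applied to run-off one day before inoculation with Botrytis cinerea spores. Plants were held 48 h at 20° C in saturated air, then 5 days at 20° C. Percent disease control was scored relative to untreated plants.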

Pyricularia oryzae = details: for Test C disease control rating: rice blast; for Test C disease control rating (100 = 100% disease control, 0 = no disease control): rice seedlings sprayed to run-off, inoculated the following day, rating relative to controls, unmarked compounds (standard test rate)
[2] = 100 = 100% disease control, 0 = no control, unmarked entries (standard test concentration)
[3] = 100 = 100% disease control, 0 = no control relative to controls, unmarked entries (standard test concentration)

SMILES	Test D disease control rating (Phytophthora infestans; [2]) [%]	Test A disease control rating [1, 3] [%]	Test B disease control rating (Puccinia recondita; [2]) [%]	Test E disease control rating (Botrytis cinerea; [2]) [%]	Test C disease control rating (Pyricularia oryzae; [2]) [%]	other results
CC(COc1ccc(Br)cc1)NC(=O)C(C#N)C(C)(C)C (single isomer, unassigned) [10b]	95	62	67	0	86	–
C[C@H](COc1cc(F)ccc1Br)NC(=O)C(C#N)C(C)(C)C (single isomer, unassigned) [166a]	76	0	0	58	99	–
C[C@H](COc1ccc(Cl)cc1Cl)NC(=O)C(C#N)C(C)(C)C (single isomer, unassigned) [32a]	0	0	27	0	91	–
CC(COc1ccc(Cl)cc1)NC(=O)C(C#N)C(C)(C)C (single isomer, unassigned) [7a]	89	77	85	0	91	–
CC(COc1cc(F)ccc1Cl)NC(=O)C(C#N)C(C)(C)C (mixture of isomers) [191c]	23	86	0	0	100	–
C[C@H](COc1ccc(F)c(F)c1)NC(=O)C(C#N)C(C)(C)C (single isomer, unassigned) [30a]	0	0	0	0	100	–
Cc1c(Br)cc(C#N)n1CCC(C)NC(=O)C(C#N)C(C)C(C)(C)C (mixture of isomers) [compound 73]	0	30	28	11	53	–
CCC1(C(=O)NC(C)COc2ccccc2Cl)C(C)C1(Cl)Cl (mixture of isomers) [81a]	0	0	0	55	0	–
CCC1(C(=O)NC(C)COc2ccc(Cl)cc2)C(C)C1(Cl)Cl (mixture of isomers) [83b]	–	–	–	–	–	Test D disease control rating (Phytophthora infestans; tested at 40 ppm): 0%; Test A disease control rating ([1]; tested at 40 ppm): 52%; Test B disease control rating (Puccinia recondita; tested at 40 ppm): 0%; Test E disease control rating (Botrytis cinerea; tested at 40 ppm): 0%; Test C disease control rating (Pyricularia oryzae; tested at 40 ppm): 53%
CCC1(C(=O)NC(C)COc2cc(F)ccc2C#N)C(C)C1(Cl)Cl (stereo not shown) [compound 245]	–	–	–	–	–	Test D disease control rating (100 = 100% disease control, 0 = no disease control) (Phytophthora infestans): 0%; Test A disease control rating (100 = 100% disease control, 0 = no disease control) [1]: 72%; Test B disease control rating (100 = 100% disease control, 0 = no disease control) (Puccinia recondita): 0%; Test E disease control rating (100 = 100% disease control, 0 = no disease control) (Botrytis cinerea): 0%; Test C disease control rating (100 = 100% disease control, 0 = no disease control) (Pyricularia oryzae): 100%
Cc1ccc(Cl)c(OC[C@@H](C)NC(=O)C(C#N)C(C)(C)C)c1 (single isomer, unassigned) [15a]	92	0	28	86	97	–
CCC1(C(=O)NC(C)COc2cccc(Cl)c2Cl)C(C)C1(Cl)Cl (stereo not shown) [compound 111]	–	–	–	–	–	Test D disease control rating (Phytophthora infestans; tested at 40 ppm): 90%; Test A disease control rating ([1]; tested at 40 ppm): 90%; Test B disease control rating (Puccinia recondita; tested at 40 ppm): 0%; Test E disease control rating (Botrytis cinerea; tested at 40 ppm): 0%; Test C disease control rating (Pyricularia oryzae; tested at 40 ppm): 0%
CC(COc1ccccc1F)NC(=O)C1(C)CC1(Cl)Cl (mixture of isomers) [compound 315]	–	–	–	–	–	Test D disease control rating (100 = 100% disease control, 0 = no disease control) (Phytophthora infestans): 16%; Test A disease control rating (100 = 100% disease control, 0 = no disease control) [1]: 60%; Test B disease control rating (100 = 100% disease control, 0 = no disease control) (Puccinia recondita): 99%; Test E disease control rating (100 = 100% disease control, 0 = no disease control) (Botrytis cinerea): 0%; Test C disease control rating (100 = 100% disease control, 0 = no disease control) (Pyricularia oryzae): 51%
CCCc1cccc(C#N)c1OCC(C)NC(=O)C(C#N)C(C)C(C)(C)C (mixture of isomers) [compound 276]	–	–	–	–	–	Test D disease control rating (100 = 100% disease control, 0 = no disease control) (Phytophthora infestans): 0%; Test A disease control rating (100 = 100% disease control, 0 = no disease control) [1]: 0%; Test B disease control rating (100 = 100% disease control, 0 = no disease control) (Puccinia recondita): 0%; Test E disease control rating (100 = 100% disease control, 0 = no disease control) (Botrytis cinerea): 94%; Test C disease control rating (100 = 100% disease control, 0 = no disease control) (Pyricularia oryzae): 0%
